Measurements as given in patent publication US20120082647A1, “INTERFERON-BETA FOR USE AS MONOTHERAPY OR IN COMBINATION WITH OTHER CANCER THERAPIES” (priority 2010, published 2012).

Columns and labels:
[1] = test system: SK-MEL-1 human melanoma cells; assay: SK-MEL-1 melanoma tumor volume in nude mice; type: in vivo; details: SK-MEL-1 tumor volume; PD325901 15 mg/kg QD 14 days, pegylated Interferon-beta-1a 10 μg QW 3 weeks
Experimental: Tumors were measured every 3 days using calipers and volume was calculated for a prolate spheroid, defined as:
where L equals the major diameter and W equals the minor diameter.

ERK phosphorylation = ERK phosphorylation in SK-MEL-1 tumors (western blot); type: in vivo, nude mice; details: SK-MEL-1 tumors removed 8 hours post last dose; FIG. 4
Experimental: Athymic nude mice were inoculated with 2×10^6 SK-MEL-1 human melanoma cells (1 injection in flank; 1 injection per mouse) and 100-200 cubic mm tumors were established. pegylated IFN β-1a was provided in 20 mM acetic acid/sodium acetate at a pH of 4.8 and 150 mM arginine/HCl containing 15 mg/mL human serum albumin (HSA). HSA was used as a control and administered at a concentration of 15 mg/mL. Mice (10 per group) were randomized and treated with either:
i. PEG400 (once a day (QD) for 14 days) and pegylated Interferon-beta-1a (10 μg once a week (QW) for 3 weeks); ii. PD325901 (15 mg/kg once a day (QD) for 14 days) and pegylated Interferon-beta-1a (10 μg once a week (QW) for 3 weeks); iii. PEG400 (once a day (QD) for 14 days) and (HSA) (QW for 3 weeks); iv. PD325901 (15 mg/kg once a day (QD) for 14 days) and HSA (QW for 3 weeks).
Tumors were measured every 3 days using calipers and volume was calculated for a prolate spheroid. The identity of the vehicle control for pegylated interferon-beta-1a vehicle (HSA) and pegylated Interferon-beta-1a was blinded. Tumors were removed 8 hours post last dose and frozen for ERK phosphorylation analysis.

[2] = test system: MDA-MB-231 breast carcinoma cells; assay: MDA-MB-231 breast carcinoma tumor volume in SCID mice; type: in vivo; details: paclitaxel 25 mg/kg I.P. q4d x 3, pegylated interferon beta 1a 0.4 to 1.6 mg/kg SC BIW
Experimental: 8-10 week old SCID mice from Charles River Labs were inoculated subcutaneously with 5×10^6 MDA-MB-231 breast carcinoma cells with 50% matrigel in the flank region. When the average tumor volumes reached approximately 200 mm^3 the tumor-bearing mice were randomized to treatment groups. Pegylated IFN-1a was provided in 20 mM acetic acid/sodium acetate at a pH of 4.8 and 150 mM arginine/HCl (4.8A buffer). Paclitaxel was provided in a Cremophor Ethanol Saline mixture (CES buffer).

Row | SMILES | difference between estimates of least square means between treatment groups and vehicle control group [1] | ERK phosphorylation compared to vehicle and pegylated Interferon-beta-1a treated groups (ERK phosphorylation) | inhibition of tumor growth, single agent versus vehicle controls [2]
1 | O=C(NOC[C@H](O)CO)c1ccc(F)c(F)c1Nc1ccc(I)cc1F [PD325901, N-[(2R)-2,3-dihydroxypropoxy]-3,4-difluoro-2-[(2-fluoro-4-iodo-phenyl)amino]benzamide] | −4.52 | significant inhibition of ERK phosphorylation | –
2 | CC(=O)O[C@H]1C(=O)[C@@]2(C)[C@H]([C@H](OC(=O)c3ccccc3)[C@]3(O)C[C@H](OC(=O)[C@H](O)[C@@H](NC(=O)c4ccccc4)c4ccccc4)C(C)=C1C3(C)C)[C@]1(OC(C)=O)CO[C@@H]1C[C@@H]2O [paclitaxel] | – | – | greater inhibition of tumor growth compared to mice treated with vehicle controls
